This note sets out measurements from patent US20110301217A1, “Selective Glycosidase Inhibitors and Uses Thereof” (priority 2008, published 2011).

In the experiment the target is T1, O-GlcNAcase (Homo sapiens, UniProt O60502).
T1 sequence (O60502 1-916): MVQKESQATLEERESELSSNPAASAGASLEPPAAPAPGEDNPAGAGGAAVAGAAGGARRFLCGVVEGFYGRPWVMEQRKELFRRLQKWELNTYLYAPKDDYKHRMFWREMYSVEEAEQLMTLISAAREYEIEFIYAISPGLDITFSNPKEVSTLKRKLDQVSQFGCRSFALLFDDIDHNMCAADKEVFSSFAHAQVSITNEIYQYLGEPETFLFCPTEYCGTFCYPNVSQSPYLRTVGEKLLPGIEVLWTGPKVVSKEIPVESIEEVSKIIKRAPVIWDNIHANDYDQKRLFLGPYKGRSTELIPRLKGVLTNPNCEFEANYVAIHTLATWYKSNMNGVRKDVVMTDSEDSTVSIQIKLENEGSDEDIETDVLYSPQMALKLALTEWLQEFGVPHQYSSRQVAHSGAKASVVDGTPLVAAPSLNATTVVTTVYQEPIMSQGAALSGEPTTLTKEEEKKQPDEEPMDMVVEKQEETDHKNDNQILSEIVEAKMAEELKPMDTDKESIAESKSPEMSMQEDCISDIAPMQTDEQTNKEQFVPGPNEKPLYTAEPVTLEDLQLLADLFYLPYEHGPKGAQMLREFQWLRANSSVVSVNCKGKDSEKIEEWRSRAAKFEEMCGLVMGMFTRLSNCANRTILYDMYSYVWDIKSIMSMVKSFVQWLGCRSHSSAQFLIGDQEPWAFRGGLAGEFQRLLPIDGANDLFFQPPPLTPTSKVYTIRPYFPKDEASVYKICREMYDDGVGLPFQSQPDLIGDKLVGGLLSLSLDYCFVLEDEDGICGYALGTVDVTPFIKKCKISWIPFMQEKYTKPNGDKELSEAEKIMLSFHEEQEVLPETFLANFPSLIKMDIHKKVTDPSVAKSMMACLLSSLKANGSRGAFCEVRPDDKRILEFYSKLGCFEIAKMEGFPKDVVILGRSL
Put plainly: Assay for determination of KI values for inhibition of O-GlcNAcase activity (pNP-GlcNAc substrate). The experiment is classed as biochemical. Particulars: PBS pH 7.4, 0.5 mM pNP-GlcNAc, 37° C., Dixon plots. Here is the method: Assay for Determination of KI Values for Inhibition of O-GlcNAcase Activity
Experimental procedure for kinetic analyses: Enzymatic reactions are carried out in PBS buffer (pH 7.4) using pNP-GlcNAc as a substrate (0.5 mM) and monitored continuously at 37° C. at 400 nm using a Cary 3E UV-VIS spectrophotometer equipped with a Peltier temperature controller. Reactions are pre-heated in a 500 μL quartz cuvette for approximately 5 minutes followed by addition of 10 μL enzyme via syringe (final enzyme concentration 0.002 mg/mL). Reaction velocities are determined by linear regression of the linear region of the reaction progress curve between the first and third minutes. An inhibitor concentration range of 1/5 to 5 times KI is used in each case.
All KI values are determined using linear regression of Dixon plots.

A word on the Ki: it is the equilibrium dissociation constant of an inhibitor or competing ligand from its target. As for `CC(=O)NC[C@H]1N[C@H](CO)[C@@H](O)[C@@H]1O` [Compound 2, N-(((2R,3R,4R,5R)-3,4-dihydroxy-5-(hydroxymethyl)pyrrolidin-2-yl)methyl)acetamide], the Ki was found to be 850 nM.
